The results in this text go back to patent US9156836B2, “Tricyclic triazole compounds that modulate HSP90 activity” (Synta Pharmaceuticals Corp., priority 2008, dated 2015).

The test system of one test is Hsp90. In words: IC50 of compounds of the invention (Table 2; Her2 degradation Method 2, MV-4-11 cell survival, Cell Counting Kit-8). Type of test: cell-based, human. As to conditions: text calls it IC50 for Her2 degradation; Method 2: MV-4-11 cells, 72 hours; read-out: IC50 of compounds of the invention for inhibition of Hsp90. The protocol:
MV-4-11 cells (20,000 cells/well) were cultured in 96-well plates and maintained at 37° C. for several hours. The cells were treated with a compound of the invention or 17AAG (a positive control) at various concentrations and incubated at 37° C. for 72 hours. Cell survival was measured with Cell Counting Kit-8 (Dojindo Laboratories, Cat. # CK04).
On to `NC(=O)c1nnc2n1CC(Br)C(Br)Cc1cc(O)cc(O)c1-2` (stereo not drawn) [Compound 5, 6,7-dibromo-10,12-dihydroxy-5,6,7,8-tetrahydrobenzo[c][1,2,4]triazolo[4,3-a]azocine-3-carboxamide compound with dibromine (1:1)], for which the IC50 was determined as 23.4 µM.

Consider `NC(=O)c1nnc2n1CC(O)C(O)Cc1cc(O)cc(O)c1-2` (stereo not drawn) [Compound 4, 6,7,10,12-tetrahydroxy-5,6,7,8-tetrahydrobenzo[c][1,2,4]triazolo[4,3-a]azocine-3-carboxamide], for which the half-inhibitory concentration (IC50) was determined as 24.3 µM.

For `NC(=O)c1nnc2n1CCCc1cc(O)cc(O)c1-2` [Compound 12, 9,11-dihydroxy-6,7-dihydro-5H-benzo[c][1,2,4]triazolo[4,3-a]azepine-3-carboxamide], the IC50 was found to be 87.2 µM.

As for `NC(=O)c1nnc2n1CCCCc1cc(O)cc(O)c1-2` [Compound 2, 10,12-dihydroxy-5,6,7,8-tetrahydrobenzo[c][1,2,4]triazolo[4,3-a]azocine-3-carboxamide], the half-inhibitory concentration (IC50) amounted to 12.2 µM.

With `NC(=O)c1nnc2n1C/C=C\Cc1cc(O)cc(O)c1-2` [Compound 3, (Z)-10,12-dihydroxy-5,8-dihydrobenzo[c][1,2,4]triazolo[4,3-a]azocine-3-carboxamide], the IC50 was 17 µM.

A further test relates to Her2. Briefly: Degradation of Her2 in BT-474 cells, Western blot (Method 1). The conditions noted are these: 0.5 μM, overnight. Type of test: cell-based, human. The protocol:
Human high-Her2 breast carcinoma BT474 (HTB-20), SK-BR-3 (HTB-30) and MCF-7 breast carcinoma (HTB-22) from American Type Culture Collection, VA, USA were grown in Dulbecco's modified Eagle's medium with 4 mM L-glutamine and antibiotics (100 IU/ml penicillin and 100 ug/ml streptomycine;GibcoBRL). To obtain exponential cell growth, cells were trypsinized, counted and seeded at a cell density of 0.5×10^6 cells/ml regularly, every 3 days. All experiments were performed on day 1 after cell passage.
BT-474 cells are treated with 0.5 μM, 2 μM, or 5 μM of 17AAG (a positive control) or 0.5 μM, 2 μM, or 5 μM of a compound of the invention overnight in DMEM medium. After treatment, each cytoplasmic sample is prepared from 1×10^6 cells by incubation of cell lysis buffer (#9803, cell Signaling Technology) on ice for 10 minutes. The resulting supernatant used as the cytosol fractions is dissolved with sample buffer for SDS-PAGE and run on a SDS-PAGE gel, blotted onto a nitrocellulose membrane by using semi-dry transfer. Non-specific binding to nitrocellulose is blocked with 5% skim milk in TBS with 0.5% Tween at room temperature for 1 hour, then probed with anti-Her2/ErB2 mAb (rabbit IgG, #2242, Cell Signaling) and anti-Tubulin (T9026, Sigma) as housekeeping control protein. […]
For `C=CCNC1=C2C[C@@H](C)C[C@H](OC)[C@H](O)[C@@H](C)/C=C(\C)[C@H](OC(N)=O)[C@@H](OC)/C=C\C=C(/C)C(=O)NC(=CC1=O)C2=O` [Compound 17AAG, 17-allylamino-17-demethoxygeldanamycin], the “Degradation of Her2” value was “partial degradation”.
